# Results as given in PubChem BioAssay (NCI).
# “And” between values parts separate entries of the source, which are not always exact repeats. Equal entries are not always repeated.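 Test compounds were applied to cells in 96-well plates for 48 hours at 5 doses. At the GI50, growth is halved. Definition used: TGI = concentration required for complete inhibition of growth.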
# Tests used:
# Experiment in all cases: NCI tumour cell line growth inhibition, 48 h
# CAKI-1 renal = test system: CAKI-1 renal
# DU-145 prostate = test system: DU-145 prostate
# EKVX NSCLC = test system: EKVX NSCLC
# MCF7 breast = test system: MCF7 breast
# MDA-MB-435 = test system: MDA-MB-435
# MDA-N = test system: MDA-N
# OVCAR-3 ovarian = test system: OVCAR-3 ovarian
# RPMI-8226 leukemia = test system: RPMI-8226 leukemia
# SF-268 CNS = test system: SF-268 CNS
# SN12C renal = test system: SN12C renal
SMILES,TGI (CAKI-1 renal),TGI (DU-145 prostate) [µM],TGI (EKVX NSCLC),TGI (MCF7 breast),TGI (MDA-MB-435),TGI (MDA-N),TGI (OVCAR-3 ovarian) [µM],TGI (RPMI-8226 leukemia),TGI (SF-268 CNS),TGI (SN12C renal),GI50 (CAKI-1 renal) [nM],GI50 (DU-145 prostate) [nM],GI50 (EKVX NSCLC) [nM],GI50 (MCF7 breast) [nM],GI50 (MDA-N) [nM],GI50 (RPMI-8226 leukemia) [nM],GI50 (SF-268 CNS) [nM],GI50 (SN12C renal) [nM]
COC(=O)c1ccccc1C1CN=NC12Cc1ccc(C)cc1C2=O (configuration not stated),> 100 µM,> 100,> 100 µM,> 100 µM,> 100 µM,> 100 µM,> 100,> 100 µM,> 100 µM,> 100 µM,,,,,,,,
CCOC(=O)[C@@]12C[C@](/C=C/OC)(O[Si](C)(C)C)[C@@]13c1cc(OC)c(OC)cc1CCN3C(=O)C2=O,> 100 µM,> 100,> 100 µM,> 100 µM,> 100 µM,> 100 µM,> 100,> 100 µM,> 100 µM,> 100 µM,,,,,,,,
CN(C(=O)Cc1ccccc1)n1cn[n+](CC(=O)OC(C)(C)C)c1,> 10 µM,> 10,> 10 µM,> 10 µM,> 10 µM,> 10 µM,> 10,> 10 µM,> 10 µM,> 10 µM,,,,,,,,
Cc1ccc(C(=O)N/N=C(\N=Nc2ccc([N+](=O)[O-])cc2)c2ccc(N(CCC#N)CCC#N)cc2C)cc1,> 100 µM,> 100,> 100 µM,> 100 µM,> 100 µM,> 100 µM,> 100,> 100 µM,> 100 µM,> 100 µM,,,,,,,,
COC(=O)/C=C(C)/C=C\COC1CCCCO1 (configuration not stated),> 100 µM,> 100,> 100 µM,> 100 µM,> 100 µM,> 100 µM,> 100,> 100 µM,> 100 µM,> 100 µM,,,,,,,,
Nc1nc(Cl)c(CO)c(NCC2(CO)CCC2)n1,> 100 µM,> 100,> 100 µM,> 100 µM,> 100 µM,> 100 µM,> 100,> 100 µM,> 100 µM,> 100 µM,,,,,,,,
O=C1c2cc3c(cc2NC(c2ccccc2F)C1O)OCO3 (configuration not stated),> 77.8 µM,> 100,> 70.8 µM,> 100 µM,13.6 µM,8.29 µM,> 62.7,> 100 µM,68.2 µM,> 66.9 µM,,,,,,,,
CC(=O)O[C@H]1[C@@H](N2CCOCC2)C[C@H]2[C@@H]3CC=C4C[C@@H](N5CCCC5)CC[C@]4(C)[C@H]3CC[C@@]21C,> 100 µM,> 100,> 100 µM,> 100 µM,> 100 µM,> 100 µM,> 100,> 100 µM,> 100 µM,> 100 µM,,,,,,,,
CC(=O)OCC1OC(OCCCOP(=O)(OCCC#N)OCC2OC(n3cnc4c(N)ncnc43)C(OC(=O)c3ccccc3)C2OC(=O)c2ccccc2)C(OC(C)=O)C(OC(C)=O)C1OC(C)=O (configuration not stated),> 100 µM,> 100,> 100 µM,> 100 µM,> 100 µM,> 100 µM,> 100,> 100 µM,> 100 µM,> 100 µM,,,,,,,,
COc1ccc(-c2nc3ccccc3c(=O)[nH]2)cc1,> 100 µM,> 100,> 100 µM,> 100 µM,> 100 µM,> 100 µM,> 100,> 100 µM,> 100 µM,> 100 µM,,,,,,,,
Cc1nn2c(=O)c([N+](=O)[O-])c(/C=C/c3ccc(F)cc3)nc2s1,27.9 µM,> 31.6,22.5 µM,13.3 µM,10.5 µM,15.8 µM,16.6,19.7 µM,26.2 µM,21.2 µM,,,,,,,,
O=c1cc(NNc2cccc3ccccc23)[nH]c(=O)[nH]1,28.5 µM,28.6,27.7 µM,4.74 µM,30.7 µM,24.4 µM,27.3,33.3 µM,31 µM,29.9 µM,,,,,,,,
CCCC(=O)Nc1cc(C(=O)N2C[C@H]3C[C@@]34C2=CC(=O)c2[nH]cc(C)c24)n(COC)c1,1.03 µM and 0.52 µM,,3.37 µM and 2.29 µM,6.32 µM and 0.661 µM,1.6 µM and 0.537 µM,1.59 µM and 0.316 µM,0.688,2.84 µM and 0.776 µM,1.5 µM and 11.1 µM,4.18 µM and 0.684 µM,175,77.6,421,13.9,164,176,84.7,168
COc1cc(/C=C(\C)[N+](=O)[O-])cc(OC)c1,27.8 µM,44.6,33.9 µM,21.1 µM,28.3 µM,17.5 µM,31.8,9.04 µM,35.6 µM,31 µM,,,,,,,,
COC(=O)[C@@H]1c2c(oc3cc(CO)cc(O)c3c2=O)C=C[C@H]1O,22.4 µM,11.7,27.4 µM,12 µM,15.5 µM,18.9 µM,20.7,9.72 µM,21.7 µM,23.6 µM,,,,,,,,
NCCCN(CCCCN(CCCN)CCCc1ccccc1)CCCc1ccccc1,4.94 µM,23.8,12.6 µM,3.56 µM,3.27 µM,3.23 µM,3.34,6.15 µM,8.32 µM,16.9 µM,,,,,,,,
Cc1ccc(C2=CC(=O)/C(=C\C(=O)c3ccc(Br)cc3)O2)c(C)c1,9.79 µM,> 69.5,> 67.7 µM,23.8 µM,38.7 µM,19.9 µM,16.1,10 µM,31.5 µM,> 21.8 µM,,,,,,,,
Cc1nc2ccc(NCCN(C)C)c3c(=O)c4ccccc4n1c23,13.8 µM,6.87,14.2 µM,23.3 µM,16.1 µM,12.4 µM,35.6,26.2 µM,20.2 µM,40.1 µM,,,,,,,,
O=C(NNC(=O)c1ccco1)c1ccco1,> 100 µM,> 100,> 100 µM,> 100 µM,> 100 µM,> 100 µM,> 100,> 100 µM,> 100 µM,> 100 µM,,,,,,,,
CC(=O)c1csc2c1C(=O)c1ccccc1C2=O,18.2 µM,3.21,18.6 µM,5.22 µM,3.97 µM,4.21 µM,> 100,89.9 µM,12.9 µM,5.86 µM,,,,,,,,
